Source: a melting point compilation (Tetko et al.; mined from patent text by program, amines drawn as free bases though some values may be those of a salt)

melting point | Structure (SMILES)
257 to 258 °C | CC(=O)Oc1cc(CNC=C2C(=O)NC(=O)c3ccc(Br)cc32)cc(OC(C)=O)c1
150 to 153 °C | NC(=O)N(c1ccc(F)cc1)c1ccc(F)cc1
> 250 °C | CC(C)n1cc(Nc2nc(-c3ccc4cn[nH]c4c3)cn3ccnc23)cn1
114 to 116 °C | C[C@H]1CCCC(C)(C)[C@@H]1[C@H](O)c1ccc(C#N)c(F)c1
255 to 257 °C | Cc1cc(Cn2cncn2)cc2c1Cc1c(-c3ccsc3)n[nH]c1-2
147 to 148 °C | CSC(=NC(=O)Cc1ccccc1)N(C)N=Cc1ccccc1
68 to 70 °C | CCC(CC)Nc1c([N+](=O)[O-])cc(C(C)C)c(CSC#N)c1[N+](=O)[O-]
182 °C | O=C(NCCN1CCCCC1)c1nc(NCC(c2ccccc2)c2ccccc2)c2ncn([C@@H]3O[C@H](CO)[C@@H](O)[C@H]3O)c2n1
179 °C | Cc1ccc(C(=O)O)c(Oc2ccc3c(c2)c(C(=O)O)c(CC(=O)O)n3-c2ccc(OC(C)C)cc2)n1
121 to 123 °C | CCCc1c(O)ccc2oc(Cc3ccc(F)cc3)c(C)c12
155 to 156 °C | CCOC(=O)c1cc(NCc2c(C)cccc2C)c2nc(C)n(COCc3ccccc3)c2c1
189 to 190 °C | O=c1ccc(-c2c(-c3ccccc3)nn3ccccc23)nn1C1CCC2(CC1)OCCO2
46 to 50 °C | COc1ccc(NN)cc1F
171 °C | CCCOc1ccc(/C=C(\C)C(=O)O)cc1
162 to 164 °C | CCOCc1nc2c(N)nc3ccccc3c2n1NC(C)C
276 to 278 °C | Cc1cc(C)c2c(n1)[nH]c(=O)c1ccccc12
254 to 256 °C | c1cc(-c2cnco2)cc(-c2ncc(-c3cccc(-c4cnc(-c5cccc(-c6cnco6)c5)o4)n3)o2)c1
> 300 °C | Cc1cc(C)c(-n2ccc3c(=O)[nH][nH]c(=O)c32)c(C)c1
190 to 192 °C | CC(C(N)=O)c1ccc2c(c1)C(=O)Cc1cccnc1S2 (stereo not given)
238 to 246 °C | O=C(O)COc1ccc(S(=O)(=O)C(Br)(Br)Br)cc1
150 to 151 °C | CC(C)C(C(=O)O)c1ccc2sccc2c1 (stereo not given)

The next lines start with the compound.

Structure (SMILES) | melting point
CC1=NC(NC(=O)Nc2cccc(C)c2)C(=O)N(CC(=O)N2CCC(N3CCCCC3)CC2)c2c(C)cccc21 (stereo not given) | 214 to 217 °C
Cn1cccc(N)c1=S | 98 to 100 °C
CCn1c([N+](=O)[O-])cnc1C=Cc1ccccc1 | 231 to 233 °C
c1ccc(Oc2ccc(C(c3ccccc3)(c3ccccn3)n3ccnc3)cc2)cc1 (stereo not given) | 137 to 140 °C
COc1cccc(NC(=O)c2sccc2S(=O)(=O)Nc2onc(C)c2Br)c1 | 200 to 202 °C
CCOC(=O)c1c(C)noc1NS(=O)(=O)c1ccccc1-c1ccc(CC(C)C)cc1 | 133 to 134 °C
CC12CCC3(CC1CCC1C2CCC2(C)C1CC(O)C2NC=O)OCCO3 (stereo not given) | 277 to 280 °C
CC#Cc1cn(C2OC(CO)C(O)C2O)c(=O)nc1N (stereo not given) | 241 to 243 °C
CN(Cc1ccco1)Cn1cc(C#N)c(-c2cccc(Cl)c2Cl)c1 | 79 to 80 °C
Nc1ccc(-c2ncc(C(F)(F)F)cc2Cl)cc1[N+](=O)[O-] | 126 to 127 °C
Cc1nc2cc(OC3SCC(O)C(O)C3O)ccc2s1 (stereo not given) | 210 to 211 °C
COC(=O)[C@@]12CO[C@@H](C(C)(C)C)N1C(=O)[C@@H](Cc1ccccc1)C2 | 130 to 131 °C
CCC1(CC)CCNC1=O | 52 to 53 °C
Cc1cc(C(F)(F)C(F)(F)F)ccc1NC(=O)c1cccc(I)c1C(=O)NC(C)(C)CS(C)(=O)=O | 143 to 144 °C
CCOC(=O)CN1CC(OC)=CC1=O | 54 to 56 °C
COc1ccc(C2CC(n3ccnc3)c3ccccc3N2)cc1 (stereo not given) | 156 to 158 °C
Nc1cc(=O)n(Cc2cc(Cl)ccc2Cl)[nH]1 | 195 to 196 °C
NS(=O)(=O)c1ccc(-n2cc(-c3ccccc3)cc2-c2ccc(F)cc2)cc1 | 192 to 194 °C
Cc1nnc2ccc(-c3cccc(NC(=O)C4CC4)c3)nn12 | 255 to 258 °C
